Results taken from patent US8318792B2, “Therapeutic agent for amyotrophic lateral sclerosis” (Nippon Medical School Foundation, priority 2006, dated 2012).

Assays:
Assay type in all cases: in vivo, mouse
[1] = test system: G1H-G93A transgenic mice; experiment: Exercise tolerance test: extension reflex test; conditions: for Extension reflex test score: 5 mg/kg oral daily from 80th day (before onset), score 0-2; for effect in extension reflex test as compared to placebo group: 105th, 110th, 115th and 120th day, 5 mg/kg oral daily from 80th day after birth, Mann-Whitney's U test
Procedure: (§1) The following five kinds of exercise tolerance tests were conducted every fifth day from the 70th day after birth to evaluate the ability to exercise in the respective exercise tolerance tests. That is, the days for the exercise tolerance tests were every fifth days, such as the 70th day, 75th day, 80th day, 85th day and so on, after birth. The exercise tolerance tests were conducted throughout the survival period, and the post-mortem evaluation was based on the definitions of the following five kinds of exercise tolerance tests.
As for extension reflex, extension of the hindlimbs is normally observed when a mouse is suspended in the air by its tail.
The evaluation of extension reflex test of the mice was performed based on the following criteria: Score 0=Extension reflex is recognized in both of the hindlimbs; Score 1=Extension reflex is recognized only one hindlimb; and Score 2=Extension reflex is not recognized in both of the hindlimbs. The post-mortem evaluation of the extension reflex test is defined as score 2.

[2] = test system: G1H-G93A transgenic mice; experiment: Exercise tolerance test: footprint test; conditions: 5 mg/kg oral daily from 80th day (before onset), score 0-4
Procedure: as §1
Both hindlimbs of a mouse are dipped in a black ink bottle, and then the mouse is allowed to walk on white paper. The footprints of the two hindlimbs of the mouse after the walking are analyzed. […] The post-mortem evaluation of the footprint test is defined as score 4.

[3] = test system: G1H-G93A transgenic mice; experiment: Histopathological study: number of spinal cord anterior horn cells; conditions: end stage; for difference to placebo group in number of spinal cord anterior horn cells (cervical, thoracic or lumbar segment): P>0.05, Mann-Whitney's U test; for number of spinal cord anterior horn cells in the cervical segment / number of spinal cord anterior horn cells in the lumbar segment / number of spinal cord anterior horn cells in the thoracic segment: per five HE sections, average±SD
Procedure: The mouse supplied to the experiment is anesthetized by intraperitoneal injection of pentobarbital sodium in an amount of 1 mL per kg of the mouse body weight. After confirming that the mouse is completely under anesthesia, laparotomy and thoracotomy are performed, and blood is completely removed from the visceral organs of the whole body by perfusion of physiological saline at 37° C. via the left ventricle and aorta. The complete removal of blood from the visceral organs of the whole body is carried out by confirming complete removal of the blood of the aorta in the thoracic part and abdominal part, mesenteric arteries, liver, kidneys, and small arteries on the surfaces of the stomach, small intestine and large intestine under direct visual inspection. Subsequently, perfusion of 50 mL of physiological saline at 37° C. is performed. Immediately thereafter, the perfusion is performed with a fixative (4% paraformaldehyde supplemented with 0.1 M cacodylate buffer, pH 7.4). The spinal cord is removed and re-fixed with the same fixative for 18 hours. After the fixation of spinal cord tissue, each spinal cord segments is cut out to examine the spinal cord tissue. For the detailed analyses of spinal cord tissues, two segments of the cervical spinal cord (upper and lower cervical segments), three segments of the thoracic spinal cord (upper, middle, and lower thoracic segments), and two segments of lumbar spinal cord (upper and lower lumbar segments) were cut out to provide seven segments in total. Each spinal cord segments are respectively embedded in paraffin to produce paraffin blocks, and then cut into paraffin sections having a thickness of 5 μm using a microtome. The paraffin sections are subjected to hematoxylin and eosin (HE) staining.
For a quantitative analysis, serial 25 paraffin sections having a thickness of 5 μm were produced in series from the respective segment paraffin blocks of the spinal cord, and the 1st section, 7th section, 13th section, 19th section and 25th section were selected and subjected to HE staining. Specifically, paraffin sections were selected such that one paraffin section was taken at a […], and 5 HE preparations were produced from a single spinal cord segments. Therefore, 10 HE preparations from two areas for the entire cervical spinal cord, 15 HE preparations from three areas for the entire thoracic spinal cord, and 10 HE preparations from two areas for the entire lumbar spinal cord, were produced.
In order to calculate the number of motor neurons in the anterior horn, all of the HE stained sections were observed under a light microscope (BX41: Olympus Corp., Tokyo, Japan) equipped with a 3CCD digital color camera system for the microscope (FX380: Olympus Corp., Tokyo, Japan). Subsequently, photographs of the anterior horn region (corresponding to VII, VIII and IX Rexed areas) in the HE stained sections of the respective myelomere tissues of the spinal cord were taken, and the images were analyzed using an image analysis-filing software (FLVFS-LS Ver. 1.12: Olympus Corp., Tokyo, Japan). In regard to the definition of the motor neuron in the anterior horn of spinal cord (spinal cord anterior horn cells), cells in the HE stained sections, which have a nucleus carrying a definite nucleolus and contain a cell body having a diameter of 25 μm or more, were selected as the spinal cord anterior horn cells (Klivenyi P, et al., Nature Med 1999; 5:347-351, Kong J & Xu Z, J Neurosci 1998; 18:3241-3250, and Stephens B, et al., Neuropathol Appl Neurobiol 2001; 27:352-361). Based on this definition, the number of spinal cord anterior horn cells was counted for each of the HE stained sections. The respective numbers of spinal cord anterior horn cells in the cervical spinal cord, thoracic spinal cord and lumbar spinal cord of one mouse was calculated from the total number of spinal cord anterior horn cells in five HE stained sections. […]

[4] = 5 mg/kg oral daily from 80th day after birth (before onset)
[5] = 5 mg/kg oral daily from the day of onset (after onset)

Compound	Extension reflex test score ([1]; 70th day after birth, 5 mg/kg)	Extension reflex test score ([1]; 75th day after birth, 5 mg/kg)	Extension reflex test score ([1]; 80th day after birth, 5 mg/kg)	Extension reflex test score ([1]; 85th day after birth, 5 mg/kg)	Extension reflex test score ([1]; 90th day after birth, 5 mg/kg)	Extension reflex test score ([1]; 95th day after birth, 5 mg/kg)	Extension reflex test score ([1]; 100th day after birth, 5 mg/kg)	Extension reflex test score ([1]; 105th day after birth, 5 mg/kg)	effect in extension reflex test as compared to placebo group [1]	Extension reflex test score ([1]; 110th day after birth, 5 mg/kg)	Extension reflex test score ([1]; 115th day after birth, 5 mg/kg)	Extension reflex test score ([1]; 120th day after birth, 5 mg/kg)	Extension reflex test score ([1]; 125th day after birth, 5 mg/kg)	Footprint test score ([2]; 70th day after birth)	Footprint test score ([2]; 75th day after birth)	Footprint test score ([2]; 80th day after birth)	Footprint test score ([2]; 85th day after birth)	Footprint test score ([2]; 90th day after birth)	Footprint test score ([2]; 95th day after birth)	Footprint test score ([2]; 100th day after birth)	also measured
Cc1nc(-c2ccc(OCC(C)C)c(C#N)c2)sc1C(=O)O [compound (c), 2-[3-cyano-4-(2-methylpropoxy)phenyl]-4-methyl-5-thiazolecarboxylic acid]	0.0±0.0	0.0±0.0	0.0±0.0	0.0±0.0	0.0±0.0	0.0±0.0	0.0±0.0	0.0±0.0	significant effects	0.1±0.3	0.5±0.5	1.1±0.6	1.7±0.5	0.0±0.0	0.0±0.0	0.0±0.0	0.0±0.0	0.0±0.0	0.0±0.0	0.0±0.0	Extension reflex test score ([1]; 130th day after birth): 2.0 ± 0.0; Extension reflex test score ([1]; 135th day after birth): 2.0 ± 0.0; Extension reflex test score ([1]; 140th day after birth): 2.0 ± 0.0; Extension reflex test score ([1]; from the 130th day to 140th day after birth): 2.0±0.0; Footprint test score ([2]; 105th day after birth): 0.0±0.0; Footprint test score ([2]; 110th day after birth): 0.1±0.3; Footprint test score ([2]; 115th day after birth): 0.7±0.8; Footprint test score ([2]; 120th day after birth): 1.6±1.0; Footprint test score ([2]; 125th day after birth): 2.7±0.5; Footprint test score ([2]; 130th day after birth): 3.3±0.5; Footprint test score ([2]; 135th day after birth): 3.9±0.3; Footprint test score ([2]; 140th day after birth): 4.0±0.0; difference to placebo group in number of spinal cord anterior horn cells (cervical, thoracic or lumbar segment) [3, 4]: no significant difference; number of spinal cord anterior horn cells in the cervical segment [3, 4]: 5.2±4.3; number of spinal cord anterior horn cells in the lumbar segment [3, 4]: 4.1±3.8; number of spinal cord anterior horn cells in the thoracic segment [3, 4]: 1.6±1.7
CC(C)(C)COc1ccc(-n2cc(C(=O)O)cn2)cc1C#N [compound (a), 1-[3-cyano-4-(2,2-dimethylpropoxy)phenyl]-1H-pyrazole-4-carboxylic acid]	0.0±0.0	0.0±0.0	0.0±0.0	0.0±0.0	0.0±0.0	0.0±0.0	0.0±0.0	0.0±0.0	significant effects	0.1±0.3	0.5±0.5	0.9±0.7	1.5±0.5	0.0±0.0	0.0±0.0	0.0±0.0	0.0±0.0	0.0±0.0	0.0±0.0	0.0±0.0	Extension reflex test score ([1]; 130th day after birth, 5 mg/kg): 1.9±0.3; Extension reflex test score ([1]; 135th day after birth, 5 mg/kg): 2.0±0.0; Extension reflex test score ([1]; 140th day after birth, 5 mg/kg): 2.0±0.0; Footprint test score ([2]; 105th day after birth): 0.0±0.0; Footprint test score ([2]; 110th day after birth): 0.1±0.3; Footprint test score ([2]; 115th day after birth): 0.6±0.7; Footprint test score ([2]; 120th day after birth): 1.8±0.9; Footprint test score ([2]; 125th day after birth): 2.8±0.4; Footprint test score ([2]; 130th day after birth): 3.4±0.5; Footprint test score ([2]; 135th day after birth): 3.9±0.3; Footprint test score ([2]; 140th day after birth): 4.0±0.0; difference to placebo group in number of spinal cord anterior horn cells (cervical, thoracic or lumbar segment) [3, 4]: no significant difference; difference to placebo group in number of spinal cord anterior horn cells (cervical, thoracic or lumbar segment) [3, 5]: no significant difference; number of spinal cord anterior horn cells in the cervical segment [3, 4]: 3.3±3.1; number of spinal cord anterior horn cells in the lumbar segment [3, 4]: 3.7±3.3; number of spinal cord anterior horn cells in the thoracic segment [3, 4]: 1.6±2.1; number of spinal cord anterior horn cells in the cervical segment [3, 5]: 4.8±3.7; number of spinal cord anterior horn cells in the lumbar segment [3, 5]: 4.1±4.4; number of spinal cord anterior horn cells in the thoracic segment [3, 5]: 2.3±2.2
